According to patent US20090076029A1 (Palatin Technologies, Inc., priority 2007, published 2009):
Entries after “also recorded” stand apart in the source; their conditions may differ. Where two headings read alike, the source gives them in different places.

How the values were obtained:
MC1-R [1] = target: T1, MC1-R; test: Competitive inhibition assay using [I125]-NDP-α-MSH, MC1-R membranes; assay type: binding, mouse; settings: for Inhibition at 1 μM (NDP-α-MSH) MC1-R: 1 μM compound
T1 construct: other: 1 μM compound

hMC4-R [2] = tested on: T2, hMC4-R; test: cAMP functional assay in HEK-293 cells expressing MC4-R (agonist, neutral antagonist/Schild); assay type: cell-based, human; settings: for intrinsic activity at MC4-R: NDP-α-MSH maximal stimulation = 1.0; for functional status at MC4-R: mostly at 1 μM
T2 construct: expressed in transfected cells; host or cells: HEK-293
In short: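 Cells in EBSS/HEPES pH 7.5 with 0.3 mM IBMX, exposed to compound (0.05-5000 nM, 1% DMSO) for 1 h at 37 °C; cAMP by EIA, EC50 by nonlinear regression. Antagonism: 30 min compound pre-incubation, then 1 nM NDP-α-MSH for 1 h; Schild analysis over 0.005-5000 nM agonist gives pA2.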

hMC3-R [3] = tested on: T3, hMC3-R; test: cAMP functional assay, HEK-293 cells expressing hMC3-R; assay type: cell-based, human; settings: cAMP assay at 1 μM
T3 construct: expressed in transfected cells; host or cells: HEK-293
Description: (§1) General method for EC50 determination in functional activity assay. Functional evaluation of compounds at melanocortin receptors was performed by measuring the accumulation of intracellular cAMP in HEK-293 cells expressing hMC3-R, hMC4-R or hMC5-R, and in B-16 mouse melanoma cells expressing MC1-R. Cells suspended in Earle's Balanced Salt Solution containing 10 mM HEPES (pH 7.5), 5 mM MgCl2, 1 mM glutamine, 0.1% albumin and 0.6 mM 3-isobutyl-1-methyl-xanthine, a phosphodiesterase inhibitor, were plated in 96 well plates at a density of 0.5×10^5 cells per well. Cells were incubated with the test compounds in the presence or absence of α-MSH for 1 hour at 37° C. cAMP levels in the cell lysates were measured using an EIA kit (Amersham). Data analysis and EC50 values were determined using nonlinear regression analysis with Prism Graph-Pad software.
(§2) Functional status. The agonist/antagonist status with respect to MC1-R, MC-3R, MC4-R and MC5-R of certain compounds of the invention was determined.

hMC4-R [4] = tested on: T2, hMC4-R; assay type: binding, human; settings: for Inhibition at 1 μM (AgRP) MC4-R: 1 μM compound
In short: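 Membranes from hMC4-R-expressing cells incubated 1 h at 37 °C with 0.2 nM [I^125]-AgRP (83-132) and increasing compound in 25 mM HEPES pH 7.5, 100 mM NaCl, 2 mM CaCl2, 2 mM MgCl2, 0.3 mM 1,10-phenanthroline, 0.5% BSA. Filtration, gamma counting; specific binding kept ≤10% of added counts.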

hMC5-R [5] = tested on: T4, hMC5-R; test: cAMP functional assay, HEK-293 cells expressing hMC5-R; assay type: cell-based, human; settings: cAMP assay at 1 μM
T4 construct: expressed in transfected cells; host or cells: HEK-293
Description: as §1, §2

hMC5-R [6] = target: T4, hMC5-R; test: Competitive inhibition assay using [I125]-NDP-α-MSH, hMC5-R membranes; assay type: binding, human; settings: for Ki: read-out: Ki (nM) (NDP-α-MSH) MC5-R
In short: (§3)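 Single-concentration displacement (usually 1 μM compound) of 0.2–0.4 nM [125I]-NDP-α-MSH, run 90 min at room temperature in pH 7.2 HEPES containing MgCl2, CaCl2 and KCl. Receptor sources: transfected HEK-293 membranes for human MC3-R/MC4-R/MC5-R, B-16 mouse melanoma membranes for MC1-R. Bound counts normalised to 1 μM α-MSH-defined specific binding; triplicates averaged, values below 0% set to 0%.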

MC1-R [7] = tested on: T5, MC1-R; test: cAMP functional assay, B-16 mouse melanoma cells expressing MC1-R; assay type: cell-based; settings: cAMP assay at 1 μM
T5 construct: from B-16 mouse melanoma cells (containing MC1-R); endogenous in cells; host or cells: B-16 mouse melanoma cells
Description: as §1, §2

hMC3-R [8] = target: T3, hMC3-R; test: Competitive inhibition assay using [I125]-NDP-α-MSH, hMC3-R membranes; assay type: binding, human; settings: for Ki: read-out: Ki (nM) (NDP-α-MSH) MC3-R
In short: as §3

hMC4-R [9] = target: T2, hMC4-R; test: Competitive inhibition assay using [I125]-NDP-α-MSH, hMC4-R membranes; assay type: binding, human; settings: for attenuation of binding of α-MSH and AgRP to MC4-R: both ligands (NDP-α-MSH and AgRP), summary
[10] = cAMP assay, read-out: EC50 (nM) at MC4-R
[11] = MC4-R membranes, Table 1, read-out: Ki (nM) I125-AgRP
[12] = MC4-R membranes, Table 1, read-out: Ki (nM) I125-NPD-α-MSH
[13] = read-out: Ki (nM) (NDP-α-MSH) MC4-R

Row | SMILES | Ki (MC1-R [1]) [nM] | Inhibition at 1 μM (NDP-α-MSH) MC1-R (MC1-R [1]) [%] | functional status (pAg, Ag, Antag, Inactive) (hMC4-R [2]; MC4-R, Table 1) | EC50 (hMC4-R [2]; MC4-R, Table 1, read-out: EC50) [nM] | intrinsic activity at MC4-R (hMC4-R [2]) | EC50 (hMC4-R [2]; [10]) [nM] | functional status at MC3-R (hMC3-R [3]) | Inhibition at 1 μM (AgRP) MC4-R (hMC4-R [4]) [%] | Ki (hMC4-R [4]; [11]) [nM] | Ki (hMC4-R [4]; read-out: Ki (nM) (AgRP) MC4-R) | functional status at MC5-R (hMC5-R [5]) | Ki (hMC5-R [6]) [nM] | functional status at MC1-R (MC1-R [7]) | Ki (hMC3-R [8]) [nM] | Ki (hMC4-R [9]; [12]) [nM] | attenuation of binding of α-MSH and AgRP to MC4-R (hMC4-R [9]) | Ki (hMC4-R [9]; [13]) [nM] | functional status at MC4-R (hMC4-R [2]; cAMP assay) | other results
1 | C[C@@H]1CN(C(=O)[C@H](N)Cc2ccc3ccccc3c2)[C@@H](CCCNC(=N)N)CN1C(=O)Cc1c[nH]c2ccccc12 [Example 6, N-{3-[1-(2(R)-Amino-3-naphthalen-2-yl-propionyl)-4-(2-1H-indol-3-yl-acetyl)-5(R)-methyl-piperazin-2(S)-yl]-propyl}-guanidine] | 315 | 20 | pAg (“pAg” means partial agonist) | > 1000 | 0.2 | > 1000 | no intrinsic activity (intrinsic activity below 0.1 (10%) is classified as inactive or having no intrinsic activity) | 84 | 83 | 83 | partial agonist (intrinsic activity between 0.1 (10%) and 0.7 (70%) is classified as a partial agonist) | 1530 | no intrinsic activity (intrinsic activity below 0.1 (10%) is classified as inactive or having no intrinsic activity) | 1820 | 35 | attenuate the binding of both α-MSH and AgRP to MC4-R | 35 | – | –
2 | C[C@@H]1CN(C(=O)[C@H](N)Cc2ccc3ccccc3c2)[C@@H](CCCNC(=N)N)CN1C(=O)CCCc1c[nH]c2ccccc12 [Example 7] | 1200 | 0 | pAg (“pAg” means partial agonist) | 3800 | 0.4 | > 3000 | no intrinsic activity (intrinsic activity below 0.1 (10%) is classified as inactive or having no intrinsic activity) | 82 | 133 | 133 | no intrinsic activity (intrinsic activity below 0.1 (10%) is classified as inactive or having no intrinsic activity) | 271 | no intrinsic activity (intrinsic activity below 0.1 (10%) is classified as inactive or having no intrinsic activity) | 657 | 90 | attenuate the binding of both α-MSH and AgRP to MC4-R | 90 | – | –
3 | C[C@@H]1CN(C(=O)[C@H](N)Cc2ccc3ccccc3c2)[C@@H](CCCNC(=N)N)CN1CCc1c[nH]c2ccccc12 [Example 8, N-(3-{1-(2(R)-Amino-3-naphthalen-2-yl-propionyl)-4-[2-(1H-indol-3-yl)-ethyl]-5(R)-methyl-piperazin-2(S)-yl}-propyl)-guanidine] | 162 | 2 | Ag | > 1000 | 0.9 | > 100 | no intrinsic activity (intrinsic activity below 0.1 (10%) is classified as inactive or having no intrinsic activity) | 89 | 56 | 56 | no intrinsic activity (intrinsic activity below 0.1 (10%) is classified as inactive or having no intrinsic activity) | 808 | no intrinsic activity (intrinsic activity below 0.1 (10%) is classified as inactive or having no intrinsic activity) | 2120 | 37 | attenuate the binding of both α-MSH and AgRP to MC4-R | 37 | full agonist | Inhibition at 1 μM (NDP-α-MSH) MC5-R (hMC5-R [6]; 1 μM compound): 51%; Inhibition at 1 μM (NDP-α-MSH) MC3-R (hMC3-R [8]; 1 μM compound): 27%; Inhibition at 1 μM (NDP-α-MSH) MC4-R (hMC4-R [9]; 1 μM compound): 93%
4 | Cc1[nH]c2ccccc2c1CCN1C[C@H](CCCNC(=N)N)N(C(=O)[C@H](N)Cc2ccc3ccccc3c2)C[C@H]1C [Example 9, N-(3-{1-(2(R)-Amino-3-naphthalen-2-yl-propionyl)-5(R)-methyl-4-[2-(2-methyl-1H-indol-3-yl)-ethyl]-piperazin-2(S)-yl}-propyl)-guanidine] | 148 | 73 | Ag | 384 | 0.9 | > 384 | no intrinsic activity (intrinsic activity below 0.1 (10%) is classified as inactive or having no intrinsic activity) | 92 | 35 | 35 | agonist (intrinsic activity of 0.7 (70%) or higher is classified as an agonist) | 293 | partial agonist (intrinsic activity between 0.1 (10%) and 0.7 (70%) is classified as a partial agonist) | 451 | 26 | attenuate the binding of both α-MSH and AgRP to MC4-R | 26 | agonist (intrinsic activity of 0.7 (70%) or higher is classified as an agonist) | –
5 | Cc1cc(Cl)ccc1C[C@@H](N)C(=O)N1C[C@@H](C)N(CCc2c[nH]c3ccccc23)C[C@@H]1CCCNC(=N)N [Example 10, N-(3-{1-(2(R)-Amino-(4-chloro-2-methyl-phenyl)-propionyl)-5(R)-methyl-4-[2-(1H-indol-3-yl)-ethyl]-piperazin-2(S)-yl}-propyl)-guanidine] | 1730 | 40 | pAg (“pAg” means partial agonist) | 7 | 1 | > 7 | no intrinsic activity (intrinsic activity below 0.1 (10%) is classified as inactive or having no intrinsic activity) | 97 | 5 | 5 | no intrinsic activity (intrinsic activity below 0.1 (10%) is classified as inactive or having no intrinsic activity) | 360 | no intrinsic activity (intrinsic activity below 0.1 (10%) is classified as inactive or having no intrinsic activity) | 177 | 5 | attenuate the binding of both α-MSH and AgRP to MC4-R | 5 | partial agonists; also recorded: full agonist | –
6 | Cc1cc(Cl)ccc1C[C@@H](N)C(=O)N1C[C@@H](C)N(C(=O)Cc2ccc3ccccc3c2)C[C@@H]1CCCNC(=N)N [Example 11, N-{3-[1-[2(R)-amino-3-(4-chloro-2-dimethyl-phenyl)-propionyl]-5(R)-methyl-4-(2-naphthalen-2-yl-acetyl)-piperazin-2(S)-yl]-propyl}-guanidine] | 462 | 3 | Ag | 18 | 0.9 | 18 | partial agonist (intrinsic activity between 0.1 (10%) and 0.7 (70%) is classified as a partial agonist) | 89 | 27 | 27 | agonist (intrinsic activity of 0.7 (70%) or higher is classified as an agonist) | 774 | partial agonist (intrinsic activity between 0.1 (10%) and 0.7 (70%) is classified as a partial agonist) | 398 | 3 | attenuate the binding of both α-MSH and AgRP to MC4-R | 3 | agonist (intrinsic activity of 0.7 (70%) or higher is classified as an agonist) | –
